Values quoted from earlier work in patent publication US20260232589A1, “NANOPREPARATIONS LOADED WITH TRABECTEDIN AND PACLITAXEL” (SHANGHAI JIAO TONG UNIVERSITY, priority 2023, published 2026).

System: Ly6Chi monocytes
Details: literature reports, after trabectedin administration

## COc1cc2c(cc1O)CCN[C@]21CS[C@@H]2c3c(OC(C)=O)c(C)c4c(c3[C@H](COC1=O)N1[C@@H]2[C@H]2c3c(cc(C)c(OC)c3O)C[C@@H]([C@@H]1O)N2C)OCO4 [trabectedin]
  number of Ly6Chi monocytes in the peripheral blood of mice: decreases
